Reference: ChEMBL document CHEMBL1150266, “Design and synthesis of conformationally constrained glucagon-like peptide-1 derivatives with increased plasma stability and prolonged in vivo activity” (J Med Chem, 2008)

Key:
[1] = (§1) Stability in human plasma at 1000 ng/mL at 37 degC; format: ADME, cell-free
[2] = molecular target: T1, Glucagon-like peptide 1 receptor (Homo sapiens, UniProt P43220); test: Agonist activity at human GLP1R expressed in CHO cells assessed as increase in cAMP level by cAMP-response element/luciferase activation assay; format: functional, cell-based
[3] = molecular target: T1, Glucagon-like peptide 1 receptor; test: Displacement of [125I]GLP1 from human GLP1R expressed in CHOK1 cells; format: cell-based, CHO-K1
[4] = Stability in human plasma at 1000 ng/mL at 37 degC after 5 hrs; format: ADME, cell-free; details: read-out: Stability
Plasma = test: as §1; format: ADME, cell-free

T1 sequence (P43220 whole entry): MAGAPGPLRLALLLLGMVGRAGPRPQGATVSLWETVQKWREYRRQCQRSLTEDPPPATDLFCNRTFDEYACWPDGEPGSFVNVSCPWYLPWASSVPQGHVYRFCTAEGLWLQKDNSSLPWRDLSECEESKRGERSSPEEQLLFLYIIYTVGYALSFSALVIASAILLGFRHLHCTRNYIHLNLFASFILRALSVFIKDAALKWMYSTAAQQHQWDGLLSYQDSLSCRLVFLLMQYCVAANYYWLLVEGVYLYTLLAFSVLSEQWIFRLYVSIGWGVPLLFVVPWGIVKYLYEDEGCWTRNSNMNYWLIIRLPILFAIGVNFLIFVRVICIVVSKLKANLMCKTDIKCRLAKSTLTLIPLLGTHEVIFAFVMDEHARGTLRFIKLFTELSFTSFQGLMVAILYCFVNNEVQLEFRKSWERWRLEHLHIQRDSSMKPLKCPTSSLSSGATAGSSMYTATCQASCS

| Compound | half-life at 1000 ng/mL [1] | EC50 [2] | IC50 [3] | remaining at 5 h, 1000 ng/mL [4] | Stability (Plasma) |
| --- | --- | --- | --- | --- | --- |
| CC[C@H](C)[C@H](NC(=O)[C@H](Cc1ccccc1)NC(=O)[C@H](CCC(=O)O)NC(=O)[C@H](CCCCN)NC(=O)[C@H](C)NC(=O)[C@H](C)NC(=O)[C@H](CCC(N)=O)NC(=O)CNC(=O)[C@H](CCC(=O)O)NC(=O)[C@H](CC(C)C)NC(=O)[C@H](Cc1ccc(O)cc1)NC(=O)[C@H](CO)NC(=O)[C@H](CO)NC(=O)[C@@H](NC(=O)[C@H](CC(=O)O)NC(=O)[C@H](CO)NC(=O)[C@@H](NC(=O)[C@H](Cc1ccccc1)NC(=O)[C@@H](NC(=O)CNC(=O)[C@H](CCC(=O)O)NC(=O)[C@H](C)NC(=O)[C@@H](N)Cc1cnc[nH]1)[C@@H](C)O)[C@@H](C)O)C(C)C)C(=O)N[C@@H](C)C(=O)N[C@@H](Cc1c[nH]c2ccccc12)C(=O)N[C@@H](CC(C)C)C(=O)N[C@H](C(=O)N[C@@H](CCCCN)C(=O)NCC(=O)N[C@@H](CCCNC(=N)N)C(=O)NCC(N)=O)C(C)C | 30 min | – | – | – | – |
| CC[C@H](C)[C@H](NC(=O)[C@H](Cc1ccccc1)NC(=O)[C@H](CCC(=O)O)NC(=O)[C@@H]1CCCCNC(=O)CC[C@H](NC(=O)[C@H](CCC(=O)O)NC(=O)[C@H](CC(C)C)NC(=O)[C@H](Cc2ccc(O)cc2)NC(=O)[C@H](CO)NC(=O)[C@H](CO)NC(=O)[C@@H](NC(=O)[C@H](CC(=O)O)NC(=O)[C@H](CO)NC(=O)[C@@H](NC(=O)[C@H](Cc2ccccc2)NC(=O)[C@@H](NC(=O)CNC(=O)[C@H](CCC(=O)O)NC(=O)CNC(=O)[C@@H](N)Cc2c[nH]cn2)[C@@H](C)O)[C@@H](C)O)C(C)C)C(=O)N[C@@H](CCC(N)=O)C(=O)N[C@@H](C)C(=O)N[C@@H](C)C(=O)N1)C(=O)N[C@@H](C)C(=O)N[C@@H](Cc1c[nH]c2ccccc12)C(=O)N[C@@H](CC(C)C)C(=O)N[C@H](C(=O)N[C@@H](CCCCN)C(=O)NCC(=O)N[C@@H](CCCNC(=N)N)C(=O)NCC(N)=O)C(C)C | – | 0.01 nM | 2.1 nM | 75% | Stable |
| CC[C@H](C)[C@H](NC(=O)[C@H](Cc1ccccc1)NC(=O)[C@H](CCC(=O)O)NC(=O)[C@H](CCCCN)NC(=O)[C@H](C)NC(=O)[C@H](C)NC(=O)[C@H](CCC(N)=O)NC(=O)CNC(=O)[C@H](CCC(=O)O)NC(=O)[C@H](CC(C)C)NC(=O)[C@H](Cc1ccc(O)cc1)NC(=O)[C@H](CO)NC(=O)[C@H](CO)NC(=O)[C@@H](NC(=O)[C@H](CC(=O)O)NC(=O)[C@H](CO)NC(=O)[C@@H](NC(=O)[C@H](Cc1ccccc1)NC(=O)[C@@H](NC(=O)CNC(=O)[C@H](CCC(=O)O)NC(=O)CNC(=O)[C@@H](N)Cc1cnc[nH]1)[C@@H](C)O)[C@@H](C)O)C(C)C)C(=O)N[C@@H](C)C(=O)N[C@@H](Cc1c[nH]c2ccccc12)C(=O)N[C@@H](CC(C)C)C(=O)N[C@H](C(=O)N[C@@H](CCCCN)C(=O)NCC(=O)N[C@@H](CCCNC(=N)N)C(=O)NCC(=O)O)C(C)C | 300 min | – | – | – | – |
